Measured values taken from ChEMBL document CHEMBL3046630, “Isolation and antifungal and antioomycete activities of staurosporine from Streptomyces roseoflavus strain LS-A24” (J Agric Food Chem, 2006).
Activity calls are given as the source filed them. The calls are words filed in the database; no cut-off is given here.

How the values were obtained:
Capsicum annuum = test: Phytotoxicity in Phytophthora capsici zoospores suspension infected Capsicum annuum cv. Hanbyul (pepper) at first branch stage pre-exposed to compound spray on stems before fungal infection at 500 ug/mL under greenhouse conditions; format: organism-based; details: in vivo, other
Phytophthora capsici [1] = test: (§1) Antioomycete activity against Phytophthora capsici zoospores suspension infected in pepper plants (cv. Hanbyul) at first branch stage pre-exposed to compound spray on stems before fungal infection assessed as reduction in Phyophthora blight disease severity at 500 ug/mL under greenhouse conditions; format: functional, organism-based
Phytophthora capsici [2] = test: as §1, with “1 to 1000” for “500”; format: functional, organism-based
Phytophthora capsici [3] = test: Antioomycete activity against Phytophthora capsici zoospores suspension infected in pepper plants (cv. Hanbyul) at first branch stage pre-exposed to compound spray on stems before fungal infection assessed as reduction in Phyophthora blight disease severity at 100 ug/mL under greenhouse conditions; format: functional, organism-based

CN[C@@H]1C[C@H]2O[C@@](C)([C@@H]1OC)n1c3ccccc3c3c4c(c5c6ccccc6n2c5c31)C(=O)NC4 [STAUROSPORINE]
Activity (Capsicum annuum): Non-toxic | Activity (Phytophthora capsici [1]): Active | Activity (Phytophthora capsici [2]): Dose-dependent effect

COCC(=O)N(c1c(C)cccc1C)C(C)C(=O)OC (stereo not given)
Activity (Phytophthora capsici [3]): Active | Activity (Phytophthora capsici [2]): Dose-dependent effect
